Patent US11498899B2, “Nitrone herbicides” (FMC Corporation, priority 2016, dated 2022)

Legend:
rice (Oryza sativa) = experiment: Test B flooded paddy test, visual rating 0-100 (0 no effect, 100 complete control); conditions: Flood, 250 g ai/ha, applied to paddy water, rated after 13 to 15 days
[1] = test system: pigweed (Amaranthus retroflexus); experiment: Test A preemergence, visual injury rating 0-100; assay type: in vivo
kochia (Kochia scoparia) [2] = experiment: Test A preemergence, visual injury rating 0-100; assay type: in vivo
[3] = test system: ragweed (common ragweed, Ambrosia elatior); experiment: Test A preemergence, visual injury rating 0-100; assay type: in vivo
[4] = test system: foxtail, giant (giant foxtail, Setaria faberii); experiment: Test A preemergence, visual injury rating 0-100; assay type: in vivo
[5] = test system: ryegrass, Italian (Italian ryegrass, Lolium multiflorum); experiment: Test A preemergence, visual injury rating 0-100; assay type: in vivo
[6] = test system: barnyardgrass (Echinochloa crus-galli); experiment: Test A preemergence, visual injury rating 0-100 (0 no effect, 100 complete control); assay type: in vivo
[7] = test system: pigweed (Amaranthus retroflexus); experiment: Test A postemergence, visual injury rating 0-100; assay type: in vivo; conditions: 0 to 100 scale
[8] = test system: galium (catchweed bedstraw, Galium aparine); experiment: Test A postemergence, visual injury rating 0-100; assay type: in vivo; conditions: 0 to 100 scale
kochia (Kochia scoparia) [9] = experiment: Test A postemergence, visual injury rating 0-100; assay type: in vivo; conditions: 0 to 100 scale
[10] = test system: ragweed (common ragweed, Ambrosia elatior); experiment: Test A postemergence, visual injury rating 0-100; assay type: in vivo; conditions: 0 to 100 scale
[11] = test system: foxtail, giant (giant foxtail, Setaria faberii); experiment: Test A postemergence, visual injury rating 0-100; assay type: in vivo; conditions: 0 to 100 scale
[12] = test system: ryegrass, Italian (Italian ryegrass, Lolium multiflorum); experiment: Test A postemergence, visual injury rating 0-100; assay type: in vivo; conditions: 0 to 100 scale
[13] = test system: blackgrass (Alopecurus myosuroides); experiment: Test A postemergence, visual injury rating 0-100; assay type: in vivo; conditions: 0 to 100 scale
[14] = test system: wheat (Triticum aestivum); experiment: Test A postemergence, visual injury rating 0-100; assay type: in vivo; conditions: 0 to 100 scale
[15] = test system: barnyardgrass (Echinochloa crus-galli); experiment: Test A postemergence, visual injury rating 0-100; assay type: in vivo; conditions: 0 to 100 scale
corn (Zea mays) = experiment: Test A postemergence, visual injury rating 0-100; assay type: in vivo; conditions: 0 to 100 scale
[16] = test system: barnyardgrass (Echinochloa crus-galli); experiment: Test B flooded paddy test, visual rating 0-100; conditions: Flood, 250 g ai/ha, applied to paddy water, rated after 13 to 15 days
[17] = test system: ducksalad (Heteranthera limosa); experiment: Test B flooded paddy test, visual rating 0-100; conditions: Flood, 250 g ai/ha, applied to paddy water, rated after 13 to 15 days

Row | SMILES | Rice plant response rating (0 to 100 scale) (rice (Oryza sativa)) | Pigweed plant response rating (0 to 100 scale) ([1]; 125 g ai/ha) | Pigweed plant response rating (0 to 100 scale) ([1]; 500 g ai/ha) | Kochia plant response rating (0 to 100 scale) (kochia (Kochia scoparia) [2]; 125 g ai/ha) | Kochia plant response rating (0 to 100 scale) (kochia (Kochia scoparia) [2]; 500 g ai/ha) | Ragweed plant response rating (0 to 100 scale) ([3]; 125 g ai/ha) | Ragweed plant response rating (0 to 100 scale) ([3]; 500 g ai/ha) | Foxtail, Giant plant response rating (0 to 100 scale) ([4]; 125 g ai/ha) | Foxtail, Giant plant response rating (0 to 100 scale) ([4]; 500 g ai/ha) | Ryegrass, Italian plant response rating (0 to 100 scale) ([5]; 125 g ai/ha) | Ryegrass, Italian plant response rating (0 to 100 scale) ([5]; 500 g ai/ha) | Barnyardgrass plant response rating (0 to 100 scale) ([6]; 125 g ai/ha) | Barnyardgrass plant response rating (0 to 100 scale) ([6]; 500 g ai/ha) | Pigweed plant response rating ([7]; 125 g ai/ha) | Pigweed plant response rating ([7]; 500 g ai/ha) | Galium plant response rating ([8]; 125 g ai/ha) | Galium plant response rating ([8]; 500 g ai/ha) | Kochia plant response rating (kochia (Kochia scoparia) [9]; 125 g ai/ha) | Kochia plant response rating (kochia (Kochia scoparia) [9]; 500 g ai/ha) | Ragweed plant response rating ([10]; 125 g ai/ha) | other results
1 | CC1=[N+]([O-])C(C(=O)Nc2cccc(F)c2F)C(c2cc(C)nc(OC(F)F)c2)C1 (racemic) [Compound 83] | 0 | 60 | 90 | 0 | 50 | 10 | 90 | 90 | 90 | 70 | 90 | 90 | 90 | 30 | 80 | 60 | 70 | 30 | 50 | 30 | Ragweed plant response rating ([10]; 500 g ai/ha): 70; Foxtail, Giant plant response rating ([11]; 125 g ai/ha): 80; Foxtail, Giant plant response rating ([11]; 500 g ai/ha): 90; Ryegrass, Italian plant response rating ([12]; 125 g ai/ha): 60; Ryegrass, Italian plant response rating ([12]; 500 g ai/ha): 80; Blackgrass plant response rating ([13]; 125 g ai/ha): 70; Blackgrass plant response rating ([13]; 500 g ai/ha): 80; Wheat plant response rating ([14]; 125 g ai/ha): 60; Wheat plant response rating ([14]; 500 g ai/ha): 80; Barnyardgrass plant response rating ([15]; 125 g ai/ha): 80; Barnyardgrass plant response rating ([15]; 500 g ai/ha): 90; Corn plant response rating (corn (Zea mays); 125 g ai/ha): 70; Corn plant response rating (corn (Zea mays); 500 g ai/ha): 90; Barnyardgrass plant response rating (0 to 100 scale) [16]: 80; Ducksalad plant response rating (0 to 100 scale) [17]: 75
2 | CC1=[N+]([O-])C(C(=O)Nc2cccc(F)c2F)C(c2ccc(C(F)(F)F)cc2F)C1 (stereo not shown) [Compound 101] | 0 | 70 | 90 | 30 | 90 | 10 | 90 | 90 | 90 | 40 | 90 | 90 | 90 | 0 | 60 | 70 | 80 | 30 | 60 | 30 | Ragweed plant response rating ([10]; 500 g ai/ha): 60; Foxtail, Giant plant response rating ([11]; 125 g ai/ha): 80; Foxtail, Giant plant response rating ([11]; 500 g ai/ha): 90; Ryegrass, Italian plant response rating ([12]; 125 g ai/ha): 50; Ryegrass, Italian plant response rating ([12]; 500 g ai/ha): 50; Blackgrass plant response rating ([13]; 125 g ai/ha): 70; Blackgrass plant response rating ([13]; 500 g ai/ha): 80; Wheat plant response rating ([14]; 125 g ai/ha): 10; Wheat plant response rating ([14]; 500 g ai/ha): 60; Barnyardgrass plant response rating ([15]; 125 g ai/ha): 50; Barnyardgrass plant response rating ([15]; 500 g ai/ha): 90; Corn plant response rating (corn (Zea mays); 125 g ai/ha): 20; Corn plant response rating (corn (Zea mays); 500 g ai/ha): 70; Barnyardgrass plant response rating (0 to 100 scale) [16]: 50; Ducksalad plant response rating (0 to 100 scale) [17]: 90
3 | CC1=[N+]([O-])C(C(=O)Nc2cccc(F)c2F)C(c2cc(C)cc(Cl)c2)C1 (stereo not shown) [Compound 94] | 0 | 20 | 80 | 10 | 60 | 30 | 90 | 90 | 90 | 60 | 80 | 90 | 90 | 20 | 70 | 20 | 60 | 20 | 30 | 20 | Ragweed plant response rating ([10]; 500 g ai/ha): 70; Foxtail, Giant plant response rating ([11]; 125 g ai/ha): 80; Foxtail, Giant plant response rating ([11]; 500 g ai/ha): 90; Ryegrass, Italian plant response rating ([12]; 125 g ai/ha): 60; Ryegrass, Italian plant response rating ([12]; 500 g ai/ha): 90; Blackgrass plant response rating ([13]; 125 g ai/ha): 70; Blackgrass plant response rating ([13]; 500 g ai/ha): 90; Wheat plant response rating ([14]; 125 g ai/ha): 40; Wheat plant response rating ([14]; 500 g ai/ha): 80; Barnyardgrass plant response rating ([15]; 125 g ai/ha): 80; Barnyardgrass plant response rating ([15]; 500 g ai/ha): 90; Corn plant response rating (corn (Zea mays); 125 g ai/ha): 70; Corn plant response rating (corn (Zea mays); 500 g ai/ha): 80; Barnyardgrass plant response rating (0 to 100 scale) [16]: 60; Ducksalad plant response rating (0 to 100 scale) [17]: 100
4 | CC1=[N+]([O-])C(C(=O)Nc2cccc(F)c2F)C(c2cc(C)ccc2C)C1 (racemic) [Compound 79] | 0 | 0 | 0 | 0 | 20 | 0 | 0 | 80 | 90 | 30 | 50 | 90 | 90 | 0 | 0 | 20 | 30 | 0 | 0 | 30 | Ragweed plant response rating ([10]; 500 g ai/ha): 30; Foxtail, Giant plant response rating ([11]; 125 g ai/ha): 70; Foxtail, Giant plant response rating ([11]; 500 g ai/ha): 90; Ryegrass, Italian plant response rating ([12]; 125 g ai/ha): 0; Ryegrass, Italian plant response rating ([12]; 500 g ai/ha): 50; Blackgrass plant response rating ([13]; 125 g ai/ha): 20; Blackgrass plant response rating ([13]; 500 g ai/ha): 70; Wheat plant response rating ([14]; 125 g ai/ha): 20; Wheat plant response rating ([14]; 500 g ai/ha): 70; Barnyardgrass plant response rating ([15]; 125 g ai/ha): 70; Barnyardgrass plant response rating ([15]; 500 g ai/ha): 80; Corn plant response rating (corn (Zea mays); 125 g ai/ha): 20; Corn plant response rating (corn (Zea mays); 500 g ai/ha): 70; Barnyardgrass plant response rating (0 to 100 scale) [16]: 60; Ducksalad plant response rating (0 to 100 scale) [17]: 100
5 | CC1=[N+]([O-])[C@@H](C(=O)Nc2cccc(F)c2F)[C@H](c2cccc(Oc3ccc(F)cn3)c2)C1 [Compound 84] | 0 | 0 | 30 | 0 | 50 | 0 | 20 | 30 | 90 | 0 | 80 | 10 | 90 | 10 | 40 | 40 | 40 | 0 | 20 | 0 | Ragweed plant response rating ([10]; 500 g ai/ha): 30; Foxtail, Giant plant response rating ([11]; 125 g ai/ha): 50; Foxtail, Giant plant response rating ([11]; 500 g ai/ha): 70; Ryegrass, Italian plant response rating ([12]; 125 g ai/ha): 20; Ryegrass, Italian plant response rating ([12]; 500 g ai/ha): 90; Blackgrass plant response rating ([13]; 125 g ai/ha): 90; Blackgrass plant response rating ([13]; 500 g ai/ha): 90; Wheat plant response rating ([14]; 125 g ai/ha): 0; Wheat plant response rating ([14]; 500 g ai/ha): 50; Barnyardgrass plant response rating ([15]; 125 g ai/ha): 40; Barnyardgrass plant response rating ([15]; 500 g ai/ha): 90; Corn plant response rating (corn (Zea mays); 125 g ai/ha): 0; Corn plant response rating (corn (Zea mays); 500 g ai/ha): 40; Barnyardgrass plant response rating (0 to 100 scale) [16]: 0; Ducksalad plant response rating (0 to 100 scale) [17]: 0
